This passage reports IC50 results from US20250346593A1, “IMIDAZO(1,2-1)PYRIDINE DERIVATIVES AS RIPK2 INHIBITORS” (Interline Therapeutics, Inc., priority 2022, published 2025).

As a reminder, the pIC50 is the IC50 on a negative log10 scale, so that one unit is a factor of ten.

The subject of experiment [1] is NF-κB pathway (SEAP) in THP1-Dual cells. The experiment can be described thus: THP-1 Dual cell SEAP assay (L18-MDP stimulated). Particulars: read-out: NFkB THP1 IC50. Format: cell-based.
Experiment [2] has as its target GST-RIPK2 fusion protein (human RIPK2 amino acids 1-310) (Homo sapiens (Human), UniProt O43353). In words: RIPK2 binding competition assay (TR-FRET, Tracer 199). In general terms: TR-FRET usually uses a lanthanide donor and a delayed reading to cut background.
The mark [3] stands for this setting: read-out: RIPK2 IC50, RIPK2 binding competition assay.

Molecules are shown by their SMILES. pIC50: −log10 of the molar value. Where two headings read alike, the source gives them in different places.

Sequence of GST-RIPK2 fusion protein (human RIPK2 amino acids 1-310) (O43353 1-310): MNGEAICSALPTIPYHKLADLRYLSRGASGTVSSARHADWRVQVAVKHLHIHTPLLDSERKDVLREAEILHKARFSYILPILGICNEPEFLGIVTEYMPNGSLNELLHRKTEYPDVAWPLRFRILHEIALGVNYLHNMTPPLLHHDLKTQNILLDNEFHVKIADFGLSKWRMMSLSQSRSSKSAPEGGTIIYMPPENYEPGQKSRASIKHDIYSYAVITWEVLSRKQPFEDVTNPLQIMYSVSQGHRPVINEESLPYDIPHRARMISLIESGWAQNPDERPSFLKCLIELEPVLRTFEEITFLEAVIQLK

Regarding `CCCS(=O)(=O)Nc1cc(-c2cnc3cc(OC)c(S(=O)(=O)C(C)(C)C)cn23)cc(OC)c1F` [Example 267, N-(5-(6-(tert-butylsulfonyl)-7-methoxyimidazo[1,2-a]pyridin-3-yl)-2-fluoro-3-methoxyphenyl)propane-1-sulfonamide], the negative-log IC50 (pIC50) was 6.00 to 6.60 in experiment [1] (Homo sapiens, THP1-Dual) and 8.60 to 9.00 in experiment [2].

Take `COc1cc(N)cc(-c2cnn3ccc(S(=O)(=O)C(C)(C)C)cc23)c1` [Example 24, 3-(5-(tert-butylsulfonyl)pyrazolo [1,5-a]pyridin-3-yl)-5-methoxyaniline]: the pIC50 in experiment [1] (Homo sapiens, THP1-Dual) is less than 6.00; in experiment [2] (setting [3]), less than 7.70.

On to `COc1cc2ncc(-c3cc(C)c(F)c(N)c3)n2cc1S(=O)(=O)C(C)(C)C` [Example 48, 5-(6-(tert-butylsulfonyl)-7-methoxyimidazo[1,2-a]pyridin-3-yl)-2-fluoro-3-methylaniline], for which the pIC50 in experiment [1] (Homo sapiens, THP1-Dual) is less than 6.00; in experiment [2] (setting [3]), less than 7.70.

As to `COc1ccn2c(-c3cc(F)nc(NCCCO)c3)cnc2c1` [Example 234, 3-[(6-fluoro-4-{7-methoxyimidazo[1,2-a]pyridin-3-yl}pyridin-2-yl)amino]propan-1-ol], the negative logarithm of the IC50 (pIC50) is 6.60 to 7.30 in experiment [1] (Homo sapiens, THP1-Dual) and 7.70 to 8.60 in experiment [2].

As to `COc1cc2ncc(-c3cc(F)nc(NCCCO)c3)n2cc1CO` [Example 250, 3-({6-fluoro-4-[6-(hydroxymethyl)-7-methoxyimidazo[1,2-a]pyridin-3-yl]pyridin-2-yl}amino)propan-1-ol], the negative-log IC50 (pIC50) was 6.60 to 7.30 in experiment [1] (Homo sapiens, THP1-Dual) and 7.70 to 8.60 in experiment [2].

On to `COc1cc2ncc(-c3cc(F)nc(NCCS(C)(=N)=O)c3)n2cc1S(=O)(=O)C(C)(C)C` (centres unmarked) [compound 316], for which the pIC50 in experiment [1] is 6.00 to 6.60; in experiment [2] (setting [3]), 7.70 to 8.60.

Turning to `CNc1cncc(-c2cnc3cc(OC)c(S(=O)(=O)C(C)(C)C)cn23)c1` [Example 34, 5-(6-(tert-butylsulfonyl)-7-methoxyimidazo[1,2-a]pyridin-3-yl)-N-methylpyridin-3-amine], the negative logarithm of the IC50 (pIC50) in experiment [1] (Homo sapiens, THP1-Dual) is less than 6.00; in experiment [2] (setting [3]) it was less than 7.70.

Consider `CCOc1ncc(-c2cnc3cc(OC)c(S(=O)(=O)C(C)(C)C)cn23)s1` [Example 62, 5-(6-(tert-butylsulfonyl)-7-methoxyimidazo[1,2-a]pyridin-3-yl)-2-ethoxythiazole], for which the pIC50 in experiment [1] (Homo sapiens, THP1-Dual) was less than 6.00; in experiment [2] (setting [3]) it was less than 7.70.

As to `CCCS(=O)(=O)Nc1cc(-c2cnc3cc(OC)c(S(=O)(=O)C(C)(C)C)cn23)cn(C)c1=O` [Example 124, N-(5-(6-(tert-butylsulfonyl)-7-methoxyimidazo[1,2-a]pyridin-3-yl)-1-methyl-2-oxo-1,2-dihydropyridin-3-yl)propane-1-sulfonamide], the pIC50 in experiment [1] (Homo sapiens, THP1-Dual) is less than 6.00; in experiment [2], 7.70 to 8.60.

As for `COc1cc2ncc(-c3cc(F)cc([N+](=O)[O-])c3)n2cc1S(=O)(=O)C(C)(C)C` [Example 13, 3-(3-fluoro-5-nitrophenyl)-7-methoxy-6-(2-methylpropane-2-sulfonyl)imidazo[1,2-a]pyridine], the negative-log IC50 (pIC50) in experiment [1] (Homo sapiens, THP1-Dual) was less than 6.00; in experiment [2], less than 7.70.

On to `COc1cc2ncc(-c3cc(F)c(OC)c(OCCCO)c3)n2cc1S(=O)(=O)C(C)(C)C` [compound 339, 3-(5-(6-(tert-butylsulfonyl)-7-methoxyimidazo[1,2-a]pyridin-3-yl)-3-fluoro-2-methoxyphenoxy) propan-1-ol], for which the pIC50 in experiment [1] (Homo sapiens, THP1-Dual) is less than 6.00; in experiment [2], 7.70 to 8.60.

`COc1cc2ncc(-c3cc(F)c(OC)c(NCCCO)c3)n2cc1S(=O)(=O)C(C)(C)C` [Example 319, 3-((5-(6-(tert-butylsulfonyl)-7-methoxyimidazo[1,2-a]pyridin-3-yl)-3-fluoro-2-methoxyphenyl)amino)propan-1-ol]: the pIC50 in experiment [1] (Homo sapiens, THP1-Dual) was 6.60 to 7.30; in experiment [2], 8.60 to 9.00.

Regarding `COc1ccc(CNc2cc(-c3cnc4cc(OC)c(S(=O)(=O)C(C)(C)C)cn34)cc(F)n2)cc1` [Example 216], the pIC50 in experiment [1] (Homo sapiens, THP1-Dual) was 6.60 to 7.30; in experiment [2] (setting [3]), more than 9.00.
